One experiment concerns ADPKD cystic cells. The experiment is described as follows: MFKP pump performance curve, ADPKD cystic cells. Type of experiment: cell-based, human. The text has this: (§1) A micro-fluidic device to measure transepithelial fluid absorption activities of the kidney epithelium while allowing for cell imaging andvsimultaneous control of fluid pressure, shear stress (FSS), and media chemical composition is described herein (see FIG. 2A-2F). The device measures fluidic flux across the epithelium as a function of apical and basal pressures using a microcapillary (MC) connected to port 2 or 3 (FIG. 2C). The MC measures both the trans-epithelial fluid flux and the hydraulic pressure (FIG. 2C, 2F). […] Calibration experiments are performed to obtain capillary action contribution from the MC to the basal pressure and the static pressure profiles of each device for the shear flow condition considered.
(§2) Next, it was considered whether the device is useful for understanding fluidic pumping by primary human normal kidney and ADPKD cystic cells. […] The barrier function of the epithelia was again assessed using dye permeation assay (FIG. 15A-15I).
Port 1 is closed. (4B) Schematic of the setup, which allows measurement of trans-epithelial fluid flux from the basal to apical chamber. (4C) Schematic representation of a cystic kidney derived from ADPKD patients.

In another experiment the test system is cysts. Particulars: mouse models of ADPKD; AVP treatment; reference [15]; cited from earlier work.
The next experiment concerns WTc cells. The experiment can be described thus: MFKP pump performance curve, wild type cortex (WTc) primary kidney cells. Type of experiment: cell-based, human.
Source text: as §1, §2
(§3) Port 1 is closed. (4B) Schematic of the setup, which allows measurement of trans-epithelial fluid flux from the basal to apical chamber. (4C) Schematic representation of a cystic kidney derived from ADPKD patients. (4D) Schematic representation of a kidney derived from normal human patients. (4E) The MC is connected to port 3 in the MFKP. Port 1 is closed. (4F) This setup enables measurement of trans-epithelial fluid flux from apical to basal chamber.

A further experiment deals with WTm cells. The experiment is described as follows: MFKP pump performance curve, wild type medulla (WTm) primary kidney cells. Type of experiment: cell-based, human.
Source text: as §1, §2, §3

A further experiment concerns MDCK-II epithelium. The experiment is described as follows: Micro-fluidic Kidney Pump (MFKP) pump performance curve, MDCK-II epithelium. Type of experiment: cell-based.
Source text: as §1

A further experiment deals with ADPKD kidney. Particulars: reference [16]; cited from earlier work.
In the next experiment the target is V2R (Homo sapiens, UniProt P30518). To be noted: reference [18]; cited from earlier work.
Setting [1] is: mature ADPKD epithelium, 1 nM TVP on basolateral side for 1 hour, vs control.

The text below walks through data of patent US20220265176A1, “A NOVEL, ORGAN-ON-A-CHIP DEVICE FOR ASSESSING TRANS-EPITHELIAL TRANSPORT, AND USES THEREOF” (The Johns Hopkins University, priority 2019, published 2022).

Sequence of V2R (P30518 whole entry, species assumed): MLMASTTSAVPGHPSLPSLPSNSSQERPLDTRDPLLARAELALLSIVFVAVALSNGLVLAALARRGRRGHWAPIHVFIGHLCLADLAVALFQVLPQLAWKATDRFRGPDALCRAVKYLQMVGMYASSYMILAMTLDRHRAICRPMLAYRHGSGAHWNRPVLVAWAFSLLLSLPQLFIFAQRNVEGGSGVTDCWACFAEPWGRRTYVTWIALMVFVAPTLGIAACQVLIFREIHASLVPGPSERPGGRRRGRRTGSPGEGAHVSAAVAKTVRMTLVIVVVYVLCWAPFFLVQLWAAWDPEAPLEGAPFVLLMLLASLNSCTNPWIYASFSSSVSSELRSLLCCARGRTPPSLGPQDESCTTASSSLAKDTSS

`NC(=O)CC[C@@H]1NC(=O)[C@H](Cc2ccccc2)NC(=O)[C@H](Cc2ccc(O)cc2)NC(=O)[C@@H](N)CSSC[C@@H](C(=O)N2CCC[C@H]2C(=O)N[C@@H](CCCN=C(N)N)C(=O)NCC(N)=O)NC(=O)[C@H](CC(N)=O)NC1=O` [AVP, arginine vasopressin]: in the experiment with ADPKD cystic cells (ADPKD cells, basolateral treatment of AVP), the “stall pressure ΔP*” value is −300 Pa. The basal-to-apical fluid pumping result with ADPKD cystic cells (ADPKD epithelium, basolateral treatment of AVP) was “massive surge”. In addition, the cyst growth entry in the experiment with cysts is listed as “grow bigger”. In addition, the “J0 and ΔP*” value in the experiment on WTc cells (basolateral treatment of AVP) and with WTm cells (basolateral treatment of AVP) was “variable response” throughout. Besides, in the experiment on MDCK-II epithelium (MDCK-II epithelium, chemical perturbation (addition of AVP)), the “pump performance curve (PPC)” value is reported as “changes substantially”.
As for `C[C@@H](N)[C@H]1CC[C@H](C(=O)Nc2ccncc2)CC1` [Y-27367], in the experiment on MDCK-II epithelium (MDCK-II epithelium in MFKP, addition of Y-27367), the fluid flux result is “did not influence fluid flux significantly”.
As to `Cc1ccccc1C(=O)Nc1ccc(C(=O)N2CCCC(O)c3cc(Cl)ccc32)c(C)c1` (stereo not drawn) [Tolvaptan], the total kidney volume entry in the experiment on ADPKD kidney is reported as “decreased”. Also, on V2R, the cAMP levels result was “decrease”. Further, in the experiment on ADPKD cystic cells (setting [1]), the “J0 (fluid flux at zero pressure gradient)” value is “decreased” and the “stall pressure ΔP*” value is on record as “decreased”.
For the compound `C[C@@H]1O[C@@H](O[C@H]2C[C@@H](O)[C@]3(CO)[C@H]4[C@H](O)C[C@]5(C)[C@@H](C6=CC(=O)OC6)CC[C@]5(O)[C@@H]4CC[C@]3(O)C2)[C@H](O)[C@H](O)[C@H]1O` [Ouabain], the “equilibrium fluid flux (J0)” value with WTc cells (after Ouabain induced inhibition of NKA (control 4.3)) was 1.7 μL/min/cm^2. In the experiment on WTc cells (after Ouabain induced inhibition of NKA (control 157 Pa)), the “stall pressure ΔP*” value amounted to 34 Pa. The same compound had a J0 in the experiment on WTm cells (overnight incubation with 274 μM Ouabain (control 4.3)) of 1.0 μL/min/cm2. The “ΔP*” value in the experiment on WTm cells (overnight incubation with 274 μM Ouabain (control 56 Pa)) is on record as 42 Pa.
